# Source: paper PMC11256326, “Discovery of Heparin Mimetic, Potent, and Selective Inhibitors of Human Clotting Factor XIIIa” (ACS Omega, 2024)
# Biological target: T1, rTG-2 (recombinant human tissue transglutaminase-2) (Homo sapiens, UniProt P21980)
# T1 construct: purchased Tocris Bioscience
# T1 sequence (P21980 1-687): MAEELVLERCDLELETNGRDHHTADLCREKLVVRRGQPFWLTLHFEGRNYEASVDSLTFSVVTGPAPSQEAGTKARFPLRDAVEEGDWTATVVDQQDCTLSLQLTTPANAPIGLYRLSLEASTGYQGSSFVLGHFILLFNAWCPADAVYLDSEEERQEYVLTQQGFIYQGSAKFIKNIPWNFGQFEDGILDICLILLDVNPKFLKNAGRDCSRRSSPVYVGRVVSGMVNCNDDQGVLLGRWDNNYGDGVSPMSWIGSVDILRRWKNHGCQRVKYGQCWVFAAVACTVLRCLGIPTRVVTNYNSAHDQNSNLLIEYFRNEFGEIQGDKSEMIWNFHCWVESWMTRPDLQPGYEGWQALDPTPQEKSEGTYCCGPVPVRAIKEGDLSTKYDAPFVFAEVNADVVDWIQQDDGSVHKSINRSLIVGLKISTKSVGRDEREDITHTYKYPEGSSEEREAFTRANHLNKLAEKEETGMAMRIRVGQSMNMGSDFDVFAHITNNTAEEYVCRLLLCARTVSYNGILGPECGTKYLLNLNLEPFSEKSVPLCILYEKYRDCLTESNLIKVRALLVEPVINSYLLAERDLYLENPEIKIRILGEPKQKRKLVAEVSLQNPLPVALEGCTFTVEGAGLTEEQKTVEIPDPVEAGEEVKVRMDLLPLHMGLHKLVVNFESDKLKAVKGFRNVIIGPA
# Assay: bisubstrate, fluorescence-based trans-glutamination assay with recombinant TG-2
# Format: biochemical
# Excerpt: FXIIIa and TG-2 belong to the same transglutaminase superfamily, and they share similar protein folds with a sequence similarity of 34%. Although we believe that sulfonated heparin mimetics are less likely to distribute to peripheral tissues, we evaluated inhibitor 16′s potential to inhibit TG-2 (we used recombinant TG-2). […] Likewise, we studied the inhibition of papain, a related cysteine protease, by molecule 16.
# Human plasma proteins such as FXIIIa, thrombin, factor Xa, and factor XIa were procured from Haematologic Technologies. Recombinant human TG-2 was sourced from Tocris Bioscience. Their activities were validated according to the supplier’s instructions. Chromogenic substrates for thrombin and factor Xa were acquired from Biomedica Diagnostics, while the factor XIa chromogenic substrate (S-2366) was obtained from Diapharma. Dithiothreitol, N,N-dimethylcasein, and dansylcadaverine were purchased from Sigma Aldrich. Stock solutions of thrombin and factor XIa were prepared in 50 mM Tris-HCl buffer, pH 7.4, containing 150 mM sodium chloride, 0.1% PEG8000, and 0.02% Tween80. The stock solution of factor Xa was prepared in 20 mM Tris-HCl buffer, pH 7.4, containing 100 mM sodium chloride, 0.1% PEG8000, 2.5 mM CaCl2, and 0.02% Tween80. The stock solutions of FXIIIa and rTG-2 were prepared in 50 mM Tris-HCl, 1 mM CaCl2, 100 mM sodium chloride, 0.02% Tween80, 0.1% PEG8000, and 2 mg/mL dimethylcasein. Papain and its chromogenic substrate (N-α-benzoyl-L-arginyl-4-nitroanilide) were obtained from Sigma Aldrich. Papain was prepared in 50 mM Tris-HCl buffer, pH 7.4, containing 100 mM NaCl, 100 mM DTT, 2.5 mM CaCl2, 0.1% PEG8000, and 0.02% Tween80. Human plasma for coagulation assays was obtained from George King Bio-Medica for the clotting assays. Thromboplastin-D (PT reagent), APTT reagent containing ellagic acid, and 0.025 M solution of CaCl2 were obtained from Thermo Fisher Scientific. Results were reproduced at least three times.
# For tissue TG-2, a recombinant protein (rTG-2) was used in a bisubstrate, fluorescence-based trans-glutamination assay involving dansylcadaverine and N,N-dimethylcasein as substrates and under similar conditions used for human FXIIIa above. The activity of rTG-2 was monitored following the addition of 5 μL of dansylcadaverine (2 mM) by measuring the initial rate of increase in fluorescence emission (λEx. = 360 nm and λEm. = 490 nm). Relative residual rTG-2 activity at each concentration of inhibitor 16 was calculated from the ratio of rTG-2 activity in the presence and absence of the inhibitor. Logistic eq 1 was used to fit the concentration dependence of residual rTG-2 activity to obtain the IC50 and ΔY% of inhibition.
smiles,measurement,setting,value
Nc1c(/N=N/c2ccc(S(=O)(=O)CCOS(=O)(=O)O)cc2)c(S(=O)(=O)O)cc2cc(S(=O)(=O)O)c(/N=N/c3ccc(S(=O)(=O)CCOS(=O)(=O)O)cc3)c(O)c12 [compound 16],selectivity for FXIIIa over rTG-2,,9 fold
same,IC50,recombinant TG-2,18.1 ± 3.1 µM
same,rTG-2 HS (Hill slope),recombinant TG-2,2.2 ± 0.9
same,rTG-2 ΔY,recombinant TG-2,86 ± 7%
